Each structure is given as a SMILES string. A value given as a limit tells only on which side of the number the result lay.

Series [1] relates to PSA protein secretion, LNcaP cells. Nature of the series: Inhibition of cellular PSA protein secretion. Particulars: Homo sapiens, 1 nM DHT, 48 hours, ELISA, read-out: Inhibition of PSA proteins, IC50. The class given is cell-based. How it is done: Experimental steps: 1. The original culture medium was replaced with culture medium containing 10% Charcoal Stripped FBS, and cells were allowed to starve in culture flasks for 24 hours; 2. Cells were digested and counted, and LNcaP cells were seeded into 96-well plates at 10,000 cells/well and incubated overnight; 3. The DHT and compound were added to the existing medium at a set concentration, the final concentration of DHT was 1 nM, the initial concentration of the compound was 50000 nM, 5-fold dilution was carried out, 8 concentration gradients were obtained, and incubation was carried out for 48 hours; 4. Cell culture supernatants were collected and PSA protein levels were measured according to the ELISA kit instructions. IC50 was calculated using GraphPad Prism based on the inhibition rate at each concentration, and the results were shown in Table 2 below.
A general note: An ELISA detects its analyte on a solid surface through an enzyme-linked reagent.

The target in series [2] is T1, Human CYP17 (Homo sapiens, UniProt P05093).
T1 sequence (P05093 1-508): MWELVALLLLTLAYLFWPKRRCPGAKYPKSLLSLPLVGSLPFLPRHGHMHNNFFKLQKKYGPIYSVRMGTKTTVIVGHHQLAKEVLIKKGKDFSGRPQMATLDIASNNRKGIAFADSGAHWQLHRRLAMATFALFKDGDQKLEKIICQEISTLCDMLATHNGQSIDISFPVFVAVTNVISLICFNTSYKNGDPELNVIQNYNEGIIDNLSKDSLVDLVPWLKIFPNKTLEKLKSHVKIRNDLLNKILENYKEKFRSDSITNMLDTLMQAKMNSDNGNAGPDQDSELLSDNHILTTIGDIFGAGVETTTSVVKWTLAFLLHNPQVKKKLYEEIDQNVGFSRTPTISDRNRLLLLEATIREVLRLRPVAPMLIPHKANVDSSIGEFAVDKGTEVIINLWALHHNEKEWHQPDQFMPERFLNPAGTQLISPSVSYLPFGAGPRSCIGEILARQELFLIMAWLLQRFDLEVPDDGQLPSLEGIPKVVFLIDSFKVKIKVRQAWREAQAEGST
The series is described as follows: CYP17 lyase assay. The class given is biochemical. Further details: made in house; host or cells: HEK293 cells (microsomes). The note with it: CYP17-HEK293 microsomes, 20 minutes at room temperature; read-out: CYP17 lyase IC50. How it is done:
Human CYP17 was expressed in HEK293 cells and microsome were prepared, which was subsequently used as a source of enzyme for lyase assays. The reaction includes 200 nM [3H]-hydroxy pregnenolone (ARC), 200 nM 17-hydroxy pregnenolone (Sigma), 2 mM NADPH (Calbiochem), and CYP 17-HEK293 microsomes, which were incubated for 20 minutes at room temperature in the presence of DMSO or a test compound. Compounds were dissolved in DMSO and serially diluted. The reaction was stopped by the addition of 0.2N HCl and the product was captured using an anti-mouse YSi SPA Bead (GE) conjugated anti-DHEA monoclonal antibody (Abcam). The signal intensity determined by Packard Top Count was used to calculate the percent inhibition and IC50 values.

The target in series [3] is T1, Human CYP17. Nature of the series: CYP17 hydroxylase assay. It counts as biochemical. More on the design: made in house; host or cells: E. coli (membrane preparation). The note with it: hCYP17 E. coli membrane, 25 μM pregnenolone, 37° C. 120 minutes; read-out: CYP17 hydroxylase IC50. How it is done: E. coli was transformed to express active human CYP17, and a membrane prepared from the transformed E. coli was used as a source of the enzyme. […] The reaction mixture was incubated at 37° C. for 120 minutes and 200 μL of 0.02 N HCl in acetonitrile was added to stop the reaction. The sample was then spun at […] and 200 μL of the supernatant was transferred to a clean tube for determination. The reaction product 17-alpha pregnenolone was measured by LC/MS.

Series [4] can be described thus: Metabolic stability evaluation in human liver microsomes. It counts as in vitro ADME. Particulars: human liver microsome. On the procedure:
Experiments in microsomes: Human liver microsomes: 0.5 mg/mL, Xenotech; Coenzyme (NADPH/NADH): 1 mM, Sigma Life Science; Magnesium chloride: 5 mM, 100 mM phosphate buffer (pH 7.4).
Preparation of stock solution: Powder of the example compound was accurately weighed and dissolved in DMSO to 5 mM.
Preparation of phosphate buffer (100 mM, pH7.4): A pre-formulated 0.5M potassium dihydrogen phosphate (150 mL) was mixed with 0.5M dibasic potassium phosphate (700 mL). The pH of the mixture was adjusted to 7.4 with 0.5M dibasic potassium phosphate solution. The mixture was diluted 5-fold with ultrapure water before use, and magnesium chloride was added to obtain a phosphate buffer (100 mM) containing 100 mM potassium phosphate, 3.3 mM magnesium chloride, pH 7.4.
A NADPH regeneration system solution (containing 6.5 mM NADP, 16.5 mM G-6-P, 3 U/mL G-6-P D, 3.3 mM magnesium chloride) was prepared and placed on wet ice prior to use.
Preparation of stop solution: acetonitrile solution containing 50 ng/mL propranolol hydrochloride and 200 ng/mL tolbutamide (internal standard). 25057.5 μL of phosphate buffer (pH 7.4) was taken into a 50 mL centrifuge tube, to which 812.5 μL human liver microsomes were added, and mixed to obtain a liver microsome dilution solution with a protein concentration of 0.625 mg/mL. 25057.5 μL of phosphate buffer (pH 7.4) was taken into a 50 mL centrifuge tube, to which 812.5 μL SD rat liver microsomes were added, and mixed to obtain a liver microsome dilution solution with a protein concentration of 0.625 mg/mL.
Incubation of the samples: The stock solution of the respective compound was respectively diluted to 0.25 mM with an aqueous solution containing 70% acetonitrile, and used as a working solution, ready for use. 398 μL of the dilution solution of human liver microsomes or rat liver microsome were added to a 96-well incubation plate (N=2), respectively, and 2 μL of 0.25 mM working solution was added and mixed.
Metabolic stability assay: 300 μL of pre-chilled stop solution was added to each well of a 96-well deep well plate and placed on ice as a stop plate. The 96 well incubation plate and NADPH regeneration system were placed in a 37° C. water bath box, shaken at 100 rpm and pre-incubated for 5 min. 80 μL of incubation solution was taken out from each well of the incubation plate and added to the stop plate, mixed, and replenished with 20 μL of NADPH regeneration system solution as a 0-min sample. 80 μL of NADPH regeneration system solution was added to each well of the incubation plate to start the reaction and start counting. […] Separately, 100 μL of the reaction solution was taken at 10, 30, and 90 min reaction, respectively, added to a stop plate, and vortexed for 3 minutes to terminate the reaction. The stop plate was centrifuged at 5000×g at 4° C. for 4 min. 100 μL of the supernatant was added to a 96-well plate to which 100 μL of distilled water was previously added, mixed, and analyzed by LC-MS/MS.
Data analysis: The peak areas of the corresponding compound and internal standard were detected by LC-MS/MS system, and the ratio of the peak area of the compound to the internal standard was calculated.
Background: Liver microsomes are vesicles of endoplasmic reticulum, rich in cytochrome P450 enzymes.

Setting [5] is: human liver microsomes, pH 7.4, 1 μM compound, 0.5 mg/mL protein.

One may read the IC50 as the concentration at which inhibition is half-maximal. For `[2H]c1cncc(C2=CCC3C4CCC5=CC(=O)CC[C@]5(C)C4CC[C@]23C)c1` (stereo partly drawn) [Example 11, (3β)-17-(3-pyridyl-5-d)androst-4,16-dien-3-one], the IC50 in series [1] was less than 10 nM; at Human CYP17 [2] it was less than 10 nM; at Human CYP17 [3], less than 20 nM.
Usually half-life stands for the time needed for the level to fall by half in the phase considered. As usually defined, the microsomal CLint is the rate of metabolic loss divided by the concentration. Turning to `[2H]c1ccc(C2=CCC3C4CCC5=CC(=O)CC[C@]5(C)C4CC[C@]23C)cn1` (stereo partly drawn) [Example 12, (3β)-17-(3-pyridyl-6-d)androst-4,16-dien-3-one], the IC50 is less than 10 nM in series [1], less than 10 nM at Human CYP17 [2] and less than 20 nM at Human CYP17 [3]. Besides, the “clearance compared to the non-deuterated compound” value in series [4] (in words) is “reduced”. The “half-life compared to the non-deuterated compound” value in series [4] (in words) is on record as “prolonged”. Moreover, the half-life at 1 μM in series [4] (setting [5]) was determined as 3.4 min. Moreover, in series [4] (setting [5]), the microsomal CLint at 1 μM stood at 408 µL/min/mg.
`[2H]C1=C(c2cccnc2)[C@@]2(C)CCC3C(CCC4=CC(=O)CC[C@@]43C)C2C1` (stereo partly drawn) [Example 13, (3β)-17-(3-pyridyl)-16-d-androst-4,16-dien-3-one]: the IC50 in series [1] was less than 10 nM; on Human CYP17 [2], less than 10 nM; on Human CYP17 [3], less than 20 nM.

The values above are taken from patent US10519193B2, “Steroidal compound, composition containing the same and use thereof” (Shenzhen TargetRx, Inc., priority 2016, dated 2019).
